IC50 data for twelve compounds are collected here from patent US11718612B2, “Inhibitors of receptor interacting protein kinase I for the treatment of disease” (Board of Regents, The University of Texas System, priority 2019, dated 2023).

One assay concerns U937 cells. Briefly: Human U937 cellular necroptosis assay. It is filed as cell-based. To be noted: U-937; U937 cells stimulated with 25 ng/mL human TNFalpha and 25 μM z-VAD-FMK; 22 hr; Cell Titer-Glo viability. (In ATP-based viability assays light output follows the ATP content of the culture.)
The target in another assay is RIPK1 (Homo sapiens (Human), UniProt Q13546). Briefly: ADP-Glo kinase assay, RIPK1 activity. As to conditions: 5 nM RIPK1, 50 μM ATP, 6 hr reaction. Type of assay: biochemical. On the procedure:
In order to measure RIPK1 activity the ADP-Glo kinase assay (Promega, Catalog #V7002) was used to measure the conversion of ATP to ADP. This enzymatic assay was performed in a 384-well white, Optiplate (Perkin Elmer, Catalog #6007299) with assay buffer consisting of 50 mM HEPES pH 7.5 (Gibco, Catalog #15630-080), 50 mM NaCl (Teknova, Catalog #S0252), 30 mM MgCl2 (Ambion, Catalog #AM9530G), 1 mM DTT (Santa Cruz Biotechnology, Catalog #sc-29089), 0.05% BSA (Sigma, Catalog #A3059-50G) and 0.02% CHAPS (Sigma, Catalog #C5070-5G). Stock solutions of the test compounds were prepared in 100% DMSO (Sigma, Catalog #D2650) and serially diluted 1:3 using 100% DMSO. Compounds were additionally diluted 1:40 in assay buffer, and 2 μL/well were transferred to the assay plate. 4 μL/well (final concentration of 5 nM) of RIPK1 protein (SignalChem, Catalog #R07-11G-05) diluted in assay buffer and added to the assay plate followed by a 10 minute preincutation at room temperature. 4 μL/well of ATP (Promega, Catalog #V7002) (final concentration of 50 μM) diluted in assay buffer were then added to the assay plate followed by a 6 hr reaction time. Final concentrations of RIPK1 and ATP refer to a 10 μL volume. Luminescence was measured using a BioTek Synergy™ NEO plate reader. IC50 values were calculated using a four-parameter logistic curve fit using Genedata Screener software.

For orientation: IC50 means the concentration that gives 50% inhibition.

Some results are limits rather than exact numbers.

Chain of RIPK1 (Q13546 1-327): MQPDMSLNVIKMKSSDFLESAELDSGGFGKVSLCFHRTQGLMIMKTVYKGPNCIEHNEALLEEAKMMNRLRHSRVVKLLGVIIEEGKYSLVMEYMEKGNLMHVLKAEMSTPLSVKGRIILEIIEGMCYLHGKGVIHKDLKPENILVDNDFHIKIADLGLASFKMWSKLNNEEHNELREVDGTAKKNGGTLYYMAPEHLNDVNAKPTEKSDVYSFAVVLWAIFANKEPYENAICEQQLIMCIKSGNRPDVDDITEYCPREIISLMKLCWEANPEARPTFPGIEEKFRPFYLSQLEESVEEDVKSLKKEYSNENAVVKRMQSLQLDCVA

In the case of `Cc1nc(C(=O)Nc2ccc(OC(F)(F)F)cc2)nn1Cc1ccccc1` [Example 52, 1-benzyl-5-methyl-N-(4-(trifluoromethoxy)-phenyl)-1H-1,2,4-triazole-3-carboxamide], the IC50 in the assay with U937 cells was greater than 10000 nM; at RIPK1 it was 4620 nM.

`O=C1c2nn(Cc3cncc(F)c3)c(Cl)c2CCN1c1cccc(Cl)c1F` [Example 54, 3-Chloro-6-(3-chloro-2-fluorophenyl)-2-((5-fluoropyridin-3-yl)methyl)-5,6-dihydro-2H-pyrazolo[3,4-c]pyridin-7(4H)-one]: the IC50 in the assay with U937 cells was found to be 128 nM; at RIPK1 it was 131 nM.

`COc1c2c(nn1Cc1cc(F)ccc1F)C(=O)N(c1cccc(Cl)c1F)CC2` [Example 57, 6-(3-Chloro-2-fluorophenyl)-2-(2,5-difluorobenzyl)-3-methoxy-5,6-dihydro-2H-pyrazolo[3,4-c]pyridin-7(4H)-one]: the half-maximal inhibitory concentration (IC50) was 115 nM with U937 cells and 22 nM on RIPK1.

With `NC(=O)c1cccc(Cn2nc3c(c2Cl)CCN(c2cccc(Cl)c2F)C3=O)c1` [Example 75, 3-((3-chloro-6-(3-chloro-2-fluorophenyl)-7-oxo-4,5,6,7-tetrahydro-2H-pyrazolo[3,4-c]pyridin-2-yl)methyl)benzamide], the half-maximal inhibitory concentration (IC50) with U937 cells came out at 1160 nM; at RIPK1 it was 297 nM.

Consider `Cc1ccc(Cn2cnc(C(=O)Nc3cccc(Cl)c3F)n2)cc1` [Example 86, N-(3-chloro-2-fluorophenyl)-1-(4-methylbenzyl)-1H-1,2,4-triazole-3-carboxamide], for which the figures for the half-maximal inhibitory concentration (IC50) in the assay with U937 cells and at RIPK1 were 2080 nM and 564 nM, respectively.

With `Cc1ccc(Cn2cnc(C(=O)Nc3cccc(Cl)c3F)n2)cc1F` [Example 87, N-(3-chloro-2-fluorophenyl)-1-(3-fluoro-4-methylbenzyl)-1H-1,2,4-triazole-3-carboxamide], the IC50 worked out at 4300 nM in the assay with U937 cells and 32.2 nM at RIPK1.

As to `O=C(Nc1cccc(Cl)c1F)c1ncn(Cc2cccc(F)c2)n1` [Example 88, N-(3-chloro-2-fluorophenyl)-1-(3-fluorobenzyl)-1H-1,2,4-triazole-3-carboxamide], the values for the IC50 with U937 cells and at RIPK1 were 872 nM and 36.3 nM, respectively.

Regarding `O=C(Nc1cccc(Cl)c1F)c1ncn(Cc2ccc(F)cn2)n1` [Example 89, N-(3-chloro-2-fluorophenyl)-1-((5-fluoropyridin-2-yl)methyl)-1H-1,2,4-triazole-3-carboxamide], the half-maximal inhibitory concentration (IC50) was 5580 nM with U937 cells and 1600 nM on RIPK1.

On to `Cc1ccc(Cn2cnc(C(=O)Nc3cccc(Cl)c3F)n2)cn1` [Example 90], for which the figures for the IC50 with U937 cells and on RIPK1 were 2600 nM and 1460 nM, respectively.

Take `O=C(Nc1cccc2nn[nH]c12)c1ncn(Cc2ccccc2)n1` [Example 100, N-(1H-benzo[d][1,2,3]triazol-7-yl)-1-benzyl-1H-1,2,4-triazole-3-carboxamide]: the IC50 with U937 cells was determined as 4140 nM; at RIPK1, 685 nM.

Take `O=C1c2nn(Cc3cc(F)ccc3F)c(Br)c2CCN1c1cccc(Cl)c1F` [Example 101, 3-Bromo-6-(3-chloro-2-fluorophenyl)-2-(2,5-difluorobenzyl)-2,4,5,6-tetrahydro-7H-pyrazolo[3,4-c]pyridin-7-one]: the IC50 in the assay with U937 cells is 16.2 nM; at RIPK1, 17.4 nM.

Regarding `O=C(Nc1cccc(Cl)c1F)c1ncn(Cc2ncccc2F)n1` [Example 102, N-(3-chloro-2-fluorophenyl)-1-((3-fluoropyridin-2-yl)methyl)-1H-1,2,4-triazole-3-carboxamide], the IC50 in the assay on U937 cells worked out at 1260 nM; at RIPK1, 195 nM.
